Legend:
liver cell line WT = test: Toxicity to liver cells, WT cell line
hepatitis B virus [1] = test: HBsAg-positive liver cells in liver sections of mice; details: month-long treatment, FIG. 5b
hepatitis B virus [2] = test: HBsAg in blood serum of AdHBV-infected mice; format: in vivo; details: intravenous, 20 mg/ml, FIG. 4a
Protocol: Intravenous injection of […] and Pifithrin-μ can successfully reduce the hepatitis B surface antigen (HBsAg) in the blood serum of mice, wherein the mice are continuously infected by hepatitis B virus in an adenovirus genome transfer technology (AdHBV). Each group has three mice. The experiment design is as follows: inject AdHBV into mice continuously for 28 days; respectively inject a mock medication, 20 mg/ml […], and 20 mg/ml Pifithrin-μ into the mice intravenously; collect the samples of the blood serum and livers for serological and pathological analyses.

liver cell line Pre-S2 = test: Toxicity to liver cells, Pre-S2 cell line; format: cell-based
[3] = Liver function test (GPT) in mice; format: in vivo; details: FIG. 4b
Excerpt: GPT (Glutamate Pyruvate Transaminase) is used to monitor the liver function of the mice.

liver cell line SNAP = test: Toxicity to liver cells, SNAP cell line
HSP90 = HSP90 (Homo sapiens, UniProt P08238); details: selectivity over HSP90; cited from earlier work
HSP90, sequence (P08238 whole entry, species assumed): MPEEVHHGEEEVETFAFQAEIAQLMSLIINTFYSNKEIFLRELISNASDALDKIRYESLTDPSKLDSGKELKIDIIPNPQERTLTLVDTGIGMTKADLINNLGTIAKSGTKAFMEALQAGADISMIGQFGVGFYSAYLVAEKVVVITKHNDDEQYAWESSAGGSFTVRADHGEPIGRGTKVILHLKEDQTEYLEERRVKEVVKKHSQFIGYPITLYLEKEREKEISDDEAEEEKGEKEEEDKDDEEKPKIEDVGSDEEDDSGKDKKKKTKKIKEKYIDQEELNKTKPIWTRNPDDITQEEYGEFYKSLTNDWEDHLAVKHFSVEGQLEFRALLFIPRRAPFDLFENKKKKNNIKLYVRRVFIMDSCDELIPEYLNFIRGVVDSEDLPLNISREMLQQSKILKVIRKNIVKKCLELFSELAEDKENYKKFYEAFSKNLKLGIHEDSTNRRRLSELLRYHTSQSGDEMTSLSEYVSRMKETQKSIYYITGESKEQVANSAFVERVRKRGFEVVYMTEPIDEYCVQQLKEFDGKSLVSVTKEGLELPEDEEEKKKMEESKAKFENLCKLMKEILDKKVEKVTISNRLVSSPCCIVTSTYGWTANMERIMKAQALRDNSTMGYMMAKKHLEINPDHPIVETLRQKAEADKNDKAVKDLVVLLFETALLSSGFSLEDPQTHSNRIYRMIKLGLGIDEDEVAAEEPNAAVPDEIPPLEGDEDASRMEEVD

[4] = system: LHBs-positive cells (SNAP cells 505) expressing HBV-LHBs; test: Selective cytotoxicity in co-culture, LHBs-positive cells; format: cell-based; details: 40 μM
Protocol: (§1) With elapse of time, use a microscope to observe the selective cytotoxicity of VER-155008 to the cells expressing HBV-LHBs (hepatitis B virus large S protein). The LHBs-positive cells (SNAP cells 505) are labeled by green fluorescence and co-cultured with unlabeled parental NeHepLxHT. The group of the mixed cells is processed with 40 μM VER-155008 and then periodically recorded at time points separated by a longer interval of time for 48 hours. The observed cellular quantities of the unlabeled cells (parental cells) and the green-labeled cells (LHBs-infected cells) are used to reveal typical cellular apoptosis.

parental NeHepLxHT = test: Selective cytotoxicity in co-culture, parental cells; format: cell-based; details: 40 μM, 24 hours, FIG. 3b
Protocol: as §1, with “[…].” for “With elapse of time, use a microscope to observe the selective cytotoxicity of VER-155008 to the cells expressing HBV-LHBs (hepatitis B virus large S protein).”, “apoptosis. […].” for “apoptosis.”

SMILES: NS(=O)(=O)C#Cc1ccccc1 [Pifithrin-μ, 2-Phenylethynesulfonamide]
- IC50 (liver cell line WT): 12.2 µM
- HBcAg-positive liver cells (hepatitis B virus [1]; high dosage (40 mg/Kg)): kill a portion of the HBcAg-positive liver cells
- levels of HBsAg in the blood serums (hepatitis B virus [2]): obviously reduced
- IC50 (liver cell line Pre-S2): 11.8 µM
- levels of GPT in the blood serums [3]: do not vary obviously
- IC50 (liver cell line SNAP): 17.5 µM

SMILES: N#Cc1ccc(COC[C@H]2O[C@@H](n3c(NCc4ccc(Cl)c(Cl)c4)nc4c(N)ncnc43)[C@H](O)[C@@H]2O)cc1 [VER-155008, 5′-O-[(4-Cyanophenyl)methyl]-8-[[(3,4-dichlorophenyl)methyl]amino]-adenosine]
- effect to HSP70 and GRP78 relative to effect to HSP90 (HSP90): over 100 times
- death of LHBs-positive cells ([4]; 24 hours, FIG. 3b): many of the LHBs-positive cells are dead
- death of LHBs-infected cells ([4]; 48 hours, FIG. 3c): almost all die
- IC50 (liver cell line WT): 18 µM
- HBsAg-positive liver cells (hepatitis B virus [1]; low dosage (20 mg/Kg) and high dosage (40 mg/Kg)): different effects in decreasing the HBsAg-positive liver cells
- levels of HBsAg in the blood serums (hepatitis B virus [2]): obviously reduced
- IC50 (liver cell line Pre-S2): 18.8 µM
- survival of parental cells (parental NeHepLxHT): still alive
- levels of GPT in the blood serums [3]: do not vary obviously
- IC50 (liver cell line SNAP): 36.2 µM
